According to US20040044055A1, “N-alkoxlyalkyl-substituted benzimidazoles and the use thereof as an agent against parastic protozoans” (priority 2000, published 2004):

What was measured:
Format in all cases: in vivo
Eimeria acervulina = test: Cage experiment on coccidiosis/chicks; settings: chicks; for Efficacy against Eimeria acervulina: 1st figure of cell
Experimental: (§1) 8- to 12- day-old male chicks (e.g. LSL Brinkschulte/Senden) which have been reared coccidia-free receive the compounds according to the invention (test substances) in the concentration indicated in ppm with the feed from 3 days before (day −3) infection (=a.i.) until 8 (9) days after infection (=p.i.). 3 animals are kept in each cage. One or more groups of this type are employed per dose. Infection is carried out by means of a stomach tube directly into the crop with approximately 100,000 sporulated oocysts of Eimeria acervulina and with approximately 30,000 oocysts each of E. maxima and 40,000 sporulated oocysts of E. tenella. These are highly virulent strains. The exact infection dose is adjusted so that, if possible, one of three experimentally infected untreated chicks dies due to the infection. For assessment of the efficacy, the following criteria are taken into account: weight increase from the start of the experiment to the end of the experiment, death rate due to infection, macroscopic assessment of the faeces with respect to diarrhoea and excretion of blood on days 5 and 7 p.i. (assessment 0 to 6), macroscopic assessment of the intestinal mucosa, in particular of the appendices (assessment 0 to 6) and the oocyst excretion as well as the proportion (in %) of the oocysts sporulating in the course of 24 hours. The number of oocysts in the faeces was determined with the aid of a McMaster counting chamber (see Engelbrecht and coworkers “Parasitologische Arbeitsmethoden in Medizin and Veterinärmedizin” [Parasitological Working Methods in Medicine and Veterinary Medicine], Akademie-Verlag, Berlin (1965)). The individual findings are related to the untreated non-infected control groups and a total score is calculated (cf. A. Haberkorn (1986), pp. 263 to 270 in Research in Avian Coccidiosis ed L. R. McDougald, L. P. Joyner, P. L. Long, Proceedings of the Georgia Coccidiosis Conference, Nov. 18-20, 1985, Athens/Ga. USA).
(§2) In the column “ppm”, the concentration of the active compound employed in the feed is indicated in ppm.
(§3) In the column “mortality”, the percentage of the dead animals is indicated under % and the number of dead animals/animals employed in the experiment is indicated under n.
(§4) In the column “weight % of not inf. control”, the ratio of the weight of the treated animals to the weight of the non-infected control group is indicated.
(§5) In the columns “dropping scores”, “lesion score” and “oocyst control”, individual details of the action are given.
(§6) In the column “% efficacy”, the total score is assessed; 0% means no action, 100% means full action.

Eimeria maxima = test: Cage experiment on coccidiosis/chicks; settings: chicks; for Efficacy against Eimeria maxima: 2nd figure of cell
Experimental: as §1, §2, §3, §4, §5, §6

Eimeria tenella = test: Cage experiment on coccidiosis/chicks; settings: chicks; for Efficacy against Eimeria tenella: 3rd figure of cell
Experimental: as §1, §2, §3, §4, §5, §6

[1] = system: Eimeria acervulina, Eimeria maxima and Eimeria tenella; test: Cage experiment on coccidiosis/chicks, mixed experimental infection; settings: chicks; for dropping scores / lesion score: assessment 0 to 6; for mortality n: dead animals/animals employed; for % efficay tot.: total score
Experimental: as §1, §2, §3, §4, §5, §6

## CCOCn1c(C(F)(F)F)nc2cc(OC(F)(F)F)c(C(F)(F)F)cc21 [Ex. 1]
Eimeria acervulina; 1 ppm in feed
  Efficacy against Eimeria acervulina: 0
Eimeria acervulina; 2.5 ppm in feed
  Efficacy against Eimeria acervulina: 2
Eimeria acervulina; 5 ppm in feed
  Efficacy against Eimeria acervulina: 2
Eimeria acervulina; 7.5 ppm in feed
  Efficacy against Eimeria acervulina: 2
Eimeria acervulina; 10 ppm in feed
  Efficacy against Eimeria acervulina: 2
Eimeria maxima; 1 ppm in feed
  Efficacy against Eimeria maxima: 1
Eimeria maxima; 2.5 ppm in feed
  Efficacy against Eimeria maxima: 2
Eimeria maxima; 5 ppm in feed
  Efficacy against Eimeria maxima: 2
Eimeria maxima; 7.5 ppm in feed
  Efficacy against Eimeria maxima: 2
Eimeria maxima; 10 ppm in feed
  Efficacy against Eimeria maxima: 2
Eimeria tenella; 1 ppm in feed
  Efficacy against Eimeria tenella: 1
Eimeria tenella; 2.5 ppm in feed
  Efficacy against Eimeria tenella: 2
Eimeria tenella; 5 ppm in feed
  Efficacy against Eimeria tenella: 2
Eimeria tenella; 7.5 ppm in feed
  Efficacy against Eimeria tenella: 2
Eimeria tenella; 10 ppm in feed
  Efficacy against Eimeria tenella: 1

## CC(C)COCn1c(C(F)(F)F)nc2cc(OC(F)(F)F)c(C(F)(F)F)cc21 [Ex. 2]
Eimeria acervulina; 1 ppm in feed
  Efficacy against Eimeria acervulina: 1
Eimeria acervulina; 2.5 ppm in feed
  Efficacy against Eimeria acervulina: 1
Eimeria acervulina; 5 ppm in feed
  Efficacy against Eimeria acervulina: 0
Eimeria acervulina; 7.5 ppm in feed
  Efficacy against Eimeria acervulina: 1
Eimeria acervulina; 10 ppm in feed
  Efficacy against Eimeria acervulina: 1
Eimeria acervulina; 25 ppm in feed
  Efficacy against Eimeria acervulina: 2
Eimeria acervulina; 50 ppm in feed
  Efficacy against Eimeria acervulina: 2
Eimeria acervulina; Ex. 2 2.5 ppm in feed
  oocyst in % of inf. control ac.: >100%
Eimeria acervulina; Ex. 2 5 ppm in feed
  oocyst in % of inf. control ac.: 54%
Eimeria acervulina; Ex. 2 7.5 ppm in feed
  oocyst in % of inf. control ac.: 56%
Eimeria acervulina; Ex. 2 10 ppm in feed
  oocyst in % of inf. control ac.: 93%
Eimeria maxima; 1 ppm in feed
  Efficacy against Eimeria maxima: 1
Eimeria maxima; 2.5 ppm in feed
  Efficacy against Eimeria maxima: 1
Eimeria maxima; 5 ppm in feed
  Efficacy against Eimeria maxima: 1
Eimeria maxima; 7.5 ppm in feed
  Efficacy against Eimeria maxima: 1
Eimeria maxima; 10 ppm in feed
  Efficacy against Eimeria maxima: 2
Eimeria maxima; 25 ppm in feed
  Efficacy against Eimeria maxima: 2
Eimeria maxima; 50 ppm in feed
  Efficacy against Eimeria maxima: 2
Eimeria maxima; Ex. 2 2.5 ppm in feed
  oocyst in % of inf. control max.: >100%
Eimeria maxima; Ex. 2 5 ppm in feed
  oocyst in % of inf. control max.: 0%
Eimeria maxima; Ex. 2 7.5 ppm in feed
  oocyst in % of inf. control max.: 0%
Eimeria maxima; Ex. 2 10 ppm in feed
  oocyst in % of inf. control max.: >100%
Eimeria tenella; 1 ppm in feed
  Efficacy against Eimeria tenella: 1
Eimeria tenella; 2.5 ppm in feed
  Efficacy against Eimeria tenella: 1
Eimeria tenella; 5 ppm in feed
  Efficacy against Eimeria tenella: 0
Eimeria tenella; 7.5 ppm in feed
  Efficacy against Eimeria tenella: 1
Eimeria tenella; 10 ppm in feed
  Efficacy against Eimeria tenella: 1
Eimeria tenella; 25 ppm in feed
  Efficacy against Eimeria tenella: 2
Eimeria tenella; 50 ppm in feed
  Efficacy against Eimeria tenella: 2
Eimeria tenella; Ex. 2 2.5 ppm in feed
  oocyst in % of inf. control ten.: >100%
Eimeria tenella; Ex. 2 5 ppm in feed
  oocyst in % of inf. control ten.: 98%
Eimeria tenella; Ex. 2 7.5 ppm in feed
  oocyst in % of inf. control ten.: 23%
Eimeria tenella; Ex. 2 10 ppm in feed
  oocyst in % of inf. control ten.: 65%
[1]; Ex. 2 2.5 ppm in feed
  mortality %: 33%
  oocyst in % of inf. control tot.: >100%
  weight % of not inf. control: 33%
  dropping scores: 6
  lesion score: 6
  mortality n: 1/3
  % efficay tot.: 2%
[1]; Ex. 2 5 ppm in feed
  mortality %: 33%
  oocyst in % of inf. control tot.: 73%
  weight % of not inf. control: 65%
  dropping scores: 6
  lesion score: 6
  mortality n: 1/3
  % efficay tot.: 37%
[1]; Ex. 2 7.5 ppm in feed
  mortality %: 33%
  oocyst in % of inf. control tot.: 41%
  weight % of not inf. control: 74%
  dropping scores: 6
  lesion score: 6
  mortality n: 1/3
  % efficay tot.: 36%
[1]; Ex. 2 10 ppm in feed
  mortality %: 0%
  oocyst in % of inf. control tot.: 83%
  weight % of not inf. control: 69%
  dropping scores: 6
  lesion score: 6
  mortality n: 0/3
  % efficay tot.: 17%

## CCOCn1c(C(F)(F)F)nc2c(C(F)(F)F)cc(OC(F)(F)F)cc21 [Ex. 3]
Eimeria acervulina; 1 ppm in feed
  Efficacy against Eimeria acervulina: 0
Eimeria acervulina; 2.5 ppm in feed
  Efficacy against Eimeria acervulina: 2
Eimeria acervulina; 5 ppm in feed
  Efficacy against Eimeria acervulina: 2
Eimeria acervulina; 7.5 ppm in feed
  Efficacy against Eimeria acervulina: 2
Eimeria acervulina; 10 ppm in feed
  Efficacy against Eimeria acervulina: 1
Eimeria maxima; 1 ppm in feed
  Efficacy against Eimeria maxima: 0
Eimeria maxima; 2.5 ppm in feed
  Efficacy against Eimeria maxima: 2
Eimeria maxima; 5 ppm in feed
  Efficacy against Eimeria maxima: 2
Eimeria maxima; 7.5 ppm in feed
  Efficacy against Eimeria maxima: 2
Eimeria maxima; 10 ppm in feed
  Efficacy against Eimeria maxima: 1
Eimeria tenella; 1 ppm in feed
  Efficacy against Eimeria tenella: 0
Eimeria tenella; 2.5 ppm in feed
  Efficacy against Eimeria tenella: 1
Eimeria tenella; 5 ppm in feed
  Efficacy against Eimeria tenella: 2
Eimeria tenella; 7.5 ppm in feed
  Efficacy against Eimeria tenella: 2
Eimeria tenella; 10 ppm in feed
  Efficacy against Eimeria tenella: 1

## CO[C@@H]1[C@@H](OC)[C@H](C)[C@@](O)(CC(=O)O)O[C@H]1[C@H](C)[C@H]1O[C@@]2(CC[C@@](C)([C@H]3CC[C@@](C)([C@@H]4O[C@@H]([C@H]5O[C@](C)(O)[C@H](C)C[C@@H]5C)C[C@@H]4O[C@@H]4C[C@H](OC)[C@@H](OC)[C@H](C)O4)O3)O2)C[C@H](O)[C@H]1C [MAD, maduramicin, reference compound]
Eimeria acervulina; MAD 1 ppm in feed
  oocyst in % of inf. control ac.: >100%
Eimeria acervulina; MAD 2 ppm in feed
  oocyst in % of inf. control ac.: >100%
Eimeria acervulina; MAD 3 ppm in feed
  oocyst in % of inf. control ac.: >100%
Eimeria maxima; MAD 1 ppm in feed
  oocyst in % of inf. control max.: >100%
Eimeria maxima; MAD 2 ppm in feed
  oocyst in % of inf. control max.: >100%
Eimeria maxima; MAD 3 ppm in feed
  oocyst in % of inf. control max.: >100%
Eimeria tenella; MAD 1 ppm in feed
  oocyst in % of inf. control ten.: 85%
Eimeria tenella; MAD 2 ppm in feed
  oocyst in % of inf. control ten.: >100%
Eimeria tenella; MAD 3 ppm in feed
  oocyst in % of inf. control ten.: 75%
[1]; MAD 1 ppm in feed
  mortality %: 67%
  oocyst in % of inf. control tot.: >100%
  weight % of not inf. control: 17%
  dropping scores: 6
  lesion score: 6
  mortality n: 2/3
  % efficay tot.: 0%
[1]; MAD 2 ppm in feed
  mortality %: 0%
  oocyst in % of inf. control tot.: >100%
  weight % of not inf. control: 82%
  dropping scores: 2
  lesion score: 6
  mortality n: 0/3
  % efficay tot.: 29%
[1]; MAD 3 ppm in feed
  mortality %: 0%
  oocyst in % of inf. control tot.: >100%
  weight % of not inf. control: 98%
  dropping scores: 0
  lesion score: 1
  mortality n: 0/3
  % efficay tot.: 44%
